# Earlier results in patent publication US20110313191A1, “Preparation of Pharmaceutical Salts of 3-0-(3',3'-Dimethylsuccinyl) Betulinic Acid” (Myrexis, Inc., priority 2005, published 2011).
# Tested on: HIV
# Conditions: comparison with regioisomer 3-O-2′,2′-DSB; literature statement
smiles,measurement,value
"C=C(C)[C@@H]1CC[C@]2(C(=O)O)CC[C@]3(C)[C@H](CC[C@@H]4[C@@]5(C)CC[C@H](OC(=O)CC(C)(C)C(=O)O)C(C)(C)[C@@H]5CC[C@]43C)[C@@H]12 [3-O-3′,3′-DSB, 3-O-(3′,3′-dimethylsuccinyl)betulinic acid]","EC50 of 3-O-3′,3′-DSB relative to that of 3-O-2′,2′-DSB",about four orders of magnitude lower
